Experimental data published in ChEMBL document CHEMBL1128043, “Synthesis of FK506-Cyclosporin hybrid macrocycles” (Bioorg Med Chem Lett, 1995).

Biological target: Peptidyl-prolyl cis-trans isomerase FKBP1A (Homo sapiens, UniProt P62942)
Assay: Binding affinity to FK506 binding protein 12 was determined

Peptidyl-prolyl cis-trans isomerase FKBP1A, sequence (P62942 whole entry): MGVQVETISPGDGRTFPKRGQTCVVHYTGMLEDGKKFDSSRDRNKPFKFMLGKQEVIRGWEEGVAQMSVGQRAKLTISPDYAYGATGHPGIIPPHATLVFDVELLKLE

| Compound | Kd [nM] |
| --- | --- |
| CCCC1C(=O)CC[C@@H](C)[C@@H](CCc2cccnc2)OC(=O)[C@@H]2CCCN(C2)C(=O)C(O)CC[S+]([O-])CC[C@@H](OC)C[C@@H](C)CC(=O)N1C (stereo not given in full) | > 1000 |
| CCCC1C(=O)CC[C@@H](C)[C@@H](CCc2cccnc2)OC(=O)[C@@H]2CCCN(C2)C(=O)C(=O)CSCC[C@@H](OC)C[C@@H](C)CC(=O)N1C (stereo not given in full) | 644 |

Compounds with a lower Kd, results first:

| Kd [nM] | Compound |
| --- | --- |
| 344 | C=CC[C@@H]1/C=C(\C)C[C@H](C)C[C@H](OC)[C@@H](O)[C@@H](OC)C[C@@H](C)c2ncoc2C(=O)N2CCCC[C@H]2C(=O)O[C@H](/C(C)=C/[C@@H]2CC[C@@H](O)[C@H](OC)C2)[C@H](C)C(O)CC1=O (stereo not given in full) |
| 320 | C=CC[C@@H]1/C=C(\C)C[C@H](C)C[C@H](OC)[C@@H](O)[C@@H](OC)C[C@@H](C)CC(=O)C(=O)N2CCCC[C@H]2C(=O)O[C@H](/C(C)=C/[C@@H]2CC[C@@H](O)[C@H](OC)C2)[C@H](C)[C@@H](O)CC1=O |
| 90 | CCC(C)C1C(=O)CC[C@@H](C)[C@@H](CCc2cccnc2)OC(=O)[C@@H]2CCCN(C2)C(=O)C(=O)CCSCC[C@@H](OC)C[C@@H](C)CC(=O)N1C (stereo not given in full) |
